According to patent publication US11707503B2, “Modulators of complement activity” (Ra Pharmaceuticals, Inc., priority 2015, dated 2023):
“Also recorded” adds a separate entry of the source. Starred links: 1 amine or outer side, 2 acyl side, 3 side chain; linkers in the order of their positions; H or OH if unused. Positions of bridges follow the written chain, without caps; N, C: chain ends. Non-standard residues stand in square brackets, D forms with d. Residues, ends and D or L forms follow the SMILES beside them. Trp(7-aza) = N[C@@H](Cc1c[nH]c2ncccc12)C(=O)O; Tiq1c(1S) = O=C(O)[C@H]1NCCc2ccccc21; mXylylene = c1cc(C[*:1])cc(C[*:2])c1; pXylylene = c1cc(C[*:2])ccc1C[*:1]; Phg = N[C@H](C(=O)O)c1ccccc1; Tle = CC(C)(C)[C@H](N)C(=O)O; NMeS = CN[C@@H](CO)C(=O)O; hCys = N[C@@H](CCS)C(=O)O; Nva = CCC[C@H](N)C(=O)O

Each molecule was assayed against T1, C5 (Homo sapiens, UniProt P01031) (assay: Human hemolysis assay (RBC lysis assay using complete human sera)). Conditions: antibody-sensitized sheep erythrocytes, complete human sera.
Type: cell-based
Set-up: with complete human sera (Complement Technology, Tyler Tex.) and polypeptides; tissue Complement Technology, Tyler Tex; host or cells: complete human serum
Procedure: Polypeptides listed in Table 3, as well as their optimized derivatives (see Table 4) were assessed for inhibitor activity using a red blood cell hemolysis assay. […] Human sera was rapidly thawed at 37° C. and then stored on ice until diluted into GVB++. Ten 6-fold serial dilutions of polypeptides (10 mM stock, DMSO) were performed in DMSO and then added to buffer. 50 μl of each polypeptide dilution was combined with sera and 100 μl of cells in individual wells of a 96-well tissue culture-treated clear microtitre plate (USA Scientific, Ocala, Fla.) and resuspended by pipetting. Samples were incubated at 37° C. for one hour. […] Data was fit with a log-logit formula producing a dose-response curve and IC50. As used herein, the term “IC50” refers to the half maximal inhibitory concentration, a value used to indicate the amount of the inhibitor needed to reduce a given reaction or process by half.
The human constant light chain kappa and IgG2 constant heavy chain sequences were used for the constants regions of the antibody. This antibody was expressed from human embryonic kidney cells (HEK293) and purified by Protein A affinity chromatography. […] Human sera was rapidly thawed at 37° C. and then stored on ice until diluted into GVB++. Ten 6-fold serial dilutions of each compound (10 mM stock, DMSO) were performed in DMSO and then added to buffer. 50 μl of each compound dilution was combined with sera and 100 μl of cells in individual wells of a 96-well tissue culture-treated clear microtitre plate (USA Scientific, Ocala, Fla.) and resuspended by pipetting. Samples were incubated at 37° C. for one hour. […] Data was fit with a log-logit formula producing a dose-response curve and IC50 (see FIG. 11A).

T1 sequence (P01031 678-1676 limits assumed): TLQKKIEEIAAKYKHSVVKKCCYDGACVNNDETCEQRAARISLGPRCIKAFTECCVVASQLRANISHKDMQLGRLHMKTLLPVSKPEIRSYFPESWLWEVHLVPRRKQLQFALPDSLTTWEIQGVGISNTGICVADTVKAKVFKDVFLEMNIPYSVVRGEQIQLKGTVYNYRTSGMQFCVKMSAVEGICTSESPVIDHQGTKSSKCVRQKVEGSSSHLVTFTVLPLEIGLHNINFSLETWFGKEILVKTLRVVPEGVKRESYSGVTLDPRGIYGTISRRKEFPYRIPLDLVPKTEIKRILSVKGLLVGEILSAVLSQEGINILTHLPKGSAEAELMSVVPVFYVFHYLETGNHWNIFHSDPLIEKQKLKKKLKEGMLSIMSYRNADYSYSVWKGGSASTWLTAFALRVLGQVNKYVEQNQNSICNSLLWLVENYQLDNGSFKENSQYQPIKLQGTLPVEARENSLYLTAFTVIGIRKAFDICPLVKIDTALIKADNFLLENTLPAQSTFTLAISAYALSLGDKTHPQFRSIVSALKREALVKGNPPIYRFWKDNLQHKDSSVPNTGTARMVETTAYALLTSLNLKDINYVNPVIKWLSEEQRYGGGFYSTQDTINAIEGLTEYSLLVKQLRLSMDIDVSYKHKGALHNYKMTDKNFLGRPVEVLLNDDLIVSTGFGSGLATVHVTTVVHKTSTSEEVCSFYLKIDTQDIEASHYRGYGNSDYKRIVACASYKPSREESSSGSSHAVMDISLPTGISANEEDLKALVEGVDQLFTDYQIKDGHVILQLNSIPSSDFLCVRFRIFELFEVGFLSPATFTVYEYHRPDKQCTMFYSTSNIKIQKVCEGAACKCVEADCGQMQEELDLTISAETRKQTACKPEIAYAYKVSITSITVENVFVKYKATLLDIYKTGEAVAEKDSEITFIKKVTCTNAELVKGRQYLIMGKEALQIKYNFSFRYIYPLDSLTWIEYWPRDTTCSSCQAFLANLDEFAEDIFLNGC
T1 sequence (P01031 19-673 limits assumed): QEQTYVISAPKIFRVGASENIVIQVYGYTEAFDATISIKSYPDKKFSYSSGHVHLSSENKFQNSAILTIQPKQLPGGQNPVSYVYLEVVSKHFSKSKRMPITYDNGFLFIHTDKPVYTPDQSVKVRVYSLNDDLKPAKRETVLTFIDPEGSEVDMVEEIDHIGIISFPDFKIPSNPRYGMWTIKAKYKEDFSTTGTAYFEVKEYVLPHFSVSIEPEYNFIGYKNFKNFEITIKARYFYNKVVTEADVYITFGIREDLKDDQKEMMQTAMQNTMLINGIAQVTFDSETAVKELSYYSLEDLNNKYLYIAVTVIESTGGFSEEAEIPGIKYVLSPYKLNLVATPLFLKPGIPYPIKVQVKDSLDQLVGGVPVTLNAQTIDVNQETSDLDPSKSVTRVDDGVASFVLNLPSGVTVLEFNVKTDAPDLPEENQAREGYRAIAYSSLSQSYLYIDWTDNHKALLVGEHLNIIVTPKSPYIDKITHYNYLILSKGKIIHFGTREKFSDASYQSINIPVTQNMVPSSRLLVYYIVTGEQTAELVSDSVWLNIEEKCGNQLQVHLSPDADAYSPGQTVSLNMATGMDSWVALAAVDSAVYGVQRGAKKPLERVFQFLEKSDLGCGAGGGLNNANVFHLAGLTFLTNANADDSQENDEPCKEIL

SMILES | IC50
CC(=O)N[C@H]1CSCc2cccc(c2)CSC[C@@H](C(N)=O)NC(=O)[C@H](Cc2c[nH]cn2)NC(=O)[C@H](CO)N(C)C(=O)[C@H](Cc2ccc(O)cc2)NC(=O)[C@H](CCC(=O)O)NC(=O)[C@H](Cc2c[nH]c3ncccc23)NC(=O)[C@H]([C@@H](C)O)NC(=O)[C@H](c2ccccc2)NC1=O [Compound R3015, [mXylyl(1,9)]Ac-C-Phg-T-azaTrp-E-Y-(N—Me)S-H-C-NH2] (Ac-C[Phg]T[Trp(7-aza)]EY[NMeS]HC-NH2; linker 1-9 via mXylylene) | > 3.96 µM
CCC[C@H](NC(=O)[C@@H]1CCSCc2ccc(cc2)CSCC[C@H](NC(=O)[C@H](CCC)NC(C)=O)C(=O)N[C@@H](c2ccccc2)C(=O)N[C@@H]([C@@H](C)O)C(=O)N[C@@H](Cc2c[nH]c3ncccc23)C(=O)N[C@@H](CCC(=O)O)C(=O)N[C@@H](Cc2ccc(O)cc2)C(=O)N(C)[C@@H](CO)C(=O)N[C@@H](Cc2c[nH]cn2)C(=O)N1)C(N)=O [Compound R3108, [pXylyl(2,10)]Ac-Nvl-homoC-Phg-T-azaTrp-E-Y-(N—Me)S-H-homoC-Nvl-NH2] (Ac-[Nva][hCys][Phg]T[Trp(7-aza)]EY[NMeS]H[hCys][Nva]-NH2; linker 2-10 via pXylylene) | > 75 µM
CCC[C@H](NC(=O)[C@@H]1CSCc2cccc(c2)CSC[C@H](NC(=O)[C@H](CCC)NC(C)=O)C(=O)N2CCc3ccccc3[C@H]2C(=O)N[C@@H]([C@@H](C)O)C(=O)N[C@@H](Cc2c[nH]c3ncccc23)C(=O)N[C@@H](CCC(=O)O)C(=O)N[C@@H](Cc2ccc(O)cc2)C(=O)N(C)[C@@H](CO)C(=O)N[C@@H](Cc2c[nH]cn2)C(=O)N1)C(N)=O [Compound R3122, [mXylyl(2,10)]Ac-Nvl-C-Tiq-T-azaTrp-E-Y-(N—Me)S-H-C-Nvl-NH2] (Ac-[Nva]C[Tiq1c(1S)]T[Trp(7-aza)]EY[NMeS]HC[Nva]-NH2; linker 2-10 via mXylylene) | > 50 µM
CCC[C@H](NC(=O)[C@@H](NC(=O)[C@@H]1CCCN1C(=O)[C@H](Cc1ccc(O)cc1)NC(=O)[C@H](CCC(=O)O)NC(=O)[C@H](Cc1c[nH]c2ncccc12)NC(=O)[C@H](Cc1ccc(O)cc1)NC(=O)[C@@H](NC(=O)[C@H](CC(=O)O)NC(=O)[C@@H]1CSCc2cccc(c2)CSC[C@H](NC(C)=O)C(=O)N[C@@H](C(C)C)C(=O)N[C@@H](C)C(=O)N[C@@H](CCCNC(=N)N)C(=O)N[C@@H](Cc2ccccc2)C(=O)N1)C(C)(C)C)c1ccccc1)C(N)=O [Compound R3150, [mXylyl(1,6)]Ac-C-V-A-R-F-C-D-Tbg-Y-azaTrp-E-Y-P-Phg-Nvl-NH2] (Ac-CVARFCD[Tle]Y[Trp(7-aza)]EYP[Phg][Nva]-NH2; linker 1-6 via mXylylene) | 0.032 µM

Same assay, conditions: relative to parent polypeptide

SMILES | change in ability to inhibit red blood cell lysis in words
CC(=O)N[C@H]1CSCc2cccc(c2)CSC[C@@H](C(=O)N[C@@H](CC(=O)O)C(=O)N[C@H](C(=O)N[C@@H](Cc2ccc(O)cc2)C(=O)N[C@@H](Cc2c[nH]c3ccccc23)C(=O)N[C@@H](CCC(=O)O)C(=O)N[C@@H](Cc2ccccc2)C(N)=O)C(C)C)NC(=O)[C@H](Cc2ccccc2)NC(=O)[C@H](CCCNC(=N)N)NC(=O)[C@H](CCC(=O)O)NC(=O)[C@H](C(C)C)NC1=O [Compound R3048, [mXylyl(1,6)]Ac-C-V-E-R-F-C-D-V-Y-W-E-F-NH2] (Ac-CVERFCDVYWEF-NH2; linker 1-6 via mXylylene) | increased the ability
CC(=O)N[C@H]1CSCc2cccc(c2)CSC[C@@H](C(=O)N[C@H](C(=O)N[C@@H](Cc2ccc(O)cc2)C(=O)N[C@@H](Cc2c[nH]c3ccccc23)C(=O)N[C@@H](CCC(=O)O)C(=O)N[C@@H](Cc2ccccc2)C(N)=O)C(C)C)NC(=O)[C@H](Cc2ccccc2)NC(=O)[C@H](CCCNC(=N)N)NC(=O)[C@H](CCC(=O)O)NC(=O)[C@H](C(C)C)NC1=O [Compound R3124, [mXylyl(1,6)]Ac-C-V-E-R-F-C-V-Y-W-E-F-NH2] (Ac-CVERFCVYWEF-NH2; linker 1-6 via mXylylene) | decrease in the ability
CC(=O)N[C@H]1CSCc2cccc(c2)CSC[C@@H](C(=O)N[C@@H](Cc2c[nH]c3ccccc23)C(=O)N[C@@H](CCC(=O)O)C(=O)N[C@@H](Cc2ccccc2)C(N)=O)NC(=O)[C@H](Cc2ccccc2)NC(=O)[C@H](CCCNC(=N)N)NC(=O)[C@H](CCC(=O)O)NC(=O)[C@H](C(C)C)NC1=O [Compound R3125, [mXylyl(1,6)]Ac-C-V-E-R-F-C-W-E-F-NH2] (Ac-CVERFCWEF-NH2; linker 1-6 via mXylylene) | decrease in the ability

What follows are molecules tested against T1, C5 (assay: Competitive fluorescence polarization (FP) binding assay with probe R3076). Conditions: not given.
Set-up: purchased Complement Technology, Tyler, Tex
Procedure: FP was used for screening competitive polypeptide inhibitors of the C5 protein. […] The BODIPY-TMR dye attached to the C-terminal lysine of the protein and the subsequent labeled probe was purified by HPLC.
Human C5 protein was diluted to 200 nM in assay buffer, composed of TBS (EMD Millipore, Billerica, Mass.)+0.005% Triton-X (Sigma, Saint Louis, Mo.). 10 μl of assay buffer was added to all wells of a black, non-binding, 384-well assay plate (Greiner, Monroe, N.C.) and 10 μl of diluted C5 protein stock was added to experimental and designated control wells.
Probe R3076 (SEQ ID NO: 40) was diluted 1 to 10 in DMSO (Life Technologies, Grand Island, N.Y.) and 30 μl of that stock was diluted in 3 ml of assay buffer to yield a 100 nM stock. 10 μl of this working stock was then added to each well in the assay plate. The assay plate was incubated at room temperature, protected from light, for 20 minutes to allow binding to reach equilibrium.
Test articles listed in Table 7 were subsequently diluted in DMSO then assay buffer, comprising 10 2-fold dilutions and were then added to the assay plate in triplicate, rapidly. The assay plate was then incubated in the Paradigm (Molecular Devices, Sunnyvale, Calif.) plate reader for 60 minutes at 25° C.
After incubation for 60 minutes, the plate was read using the Paradigm FP protocol (Molecular Devices, Sunnyvale, Calif.) and raw polarization values were imported into Graphpad Prism.

competition for / affinity for C5 in words | SMILES
most potent | CCC[C@H](NC(C)=O)C(=O)N[C@@H](CS)C(=O)N[C@@H](Cc1ccc(O)cc1)C(=O)N[C@@H](CCC(=O)O)C(=O)N[C@@H](CC(N)=O)C(=O)N[C@H](C(=O)N[C@@H](Cc1ccc(O)cc1)C(=O)N[C@@H](Cc1c[nH]c2ncccc12)C(=O)N[C@@H](CCC(=O)O)C(=O)N[C@@H](Cc1ccc(O)cc1)C(=O)N1CCC[C@H]1C(=O)N[C@H](C(=O)N1CCC[C@H]1C(N)=O)c1ccccc1)C(C)(C)C [Compound R3003, Ac-Nvl-C-Y-E-N-Tbg-Y-azaTrp-E-Y-P-Phg-P-NH2] (Ac-[Nva]CYEN[Tle]Y[Trp(7-aza)]EYP[Phg]P-NH2)
relatively strong affinity | CCC[C@H](NC(C)=O)C(=O)N[C@H]1CSCc2cccc(c2)CSC[C@@H](C(=O)N[C@@H](CCC)C(=O)N2CCC[C@H]2C(N)=O)NC(=O)[C@H](Cc2c[nH]cn2)NC(=O)[C@H](CO)N(C)C(=O)[C@H](Cc2ccc(O)cc2)NC(=O)[C@H](CCC(=O)O)NC(=O)[C@H](Cc2c[nH]c3ncccc23)NC(=O)[C@H]([C@@H](C)O)NC(=O)[C@H](c2ccccc2)NC1=O [Compound R3011, [mXylyl(2,10)]Ac-Nvl-C-Phg-T-azaTrp-E-Y-(N—Me)S-H-C-Nvl-P-NH2] (Ac-[Nva]C[Phg]T[Trp(7-aza)]EY[NMeS]HC[Nva]P-NH2; linker 2-10 via mXylylene)
weak affinity | CCC[C@H](NC(=O)[C@@H]1CCCN1C(=O)[C@H](CCC)NC(=O)[C@@H]1CSCc2cccc(c2)CSC[C@H](NC(C)=O)C(=O)N[C@@H](c2ccccc2)C(=O)N[C@@H]([C@@H](C)O)C(=O)N[C@@H](Cc2c[nH]c3ncccc23)C(=O)N[C@@H](CCC(=O)O)C(=O)N[C@@H](Cc2ccc(O)cc2)C(=O)N(C)[C@@H](CO)C(=O)N[C@@H](Cc2c[nH]cn2)C(=O)N1)C(N)=O [Compound R3014, [mXylyl(1,9)]Ac-C-Phg-T-azaTrp-E-Y-(N—Me)S-H-C-Nvl-P-Nvl-NH2] (Ac-C[Phg]T[Trp(7-aza)]EY[NMeS]HC[Nva]P[Nva]-NH2; linker 1-9 via mXylylene)
weak affinity | CSCC[C@H](N)C(=O)N[C@H]1CSCc2cccc(c2)CSC[C@@H](C(=O)N[C@@H](CC(=O)O)C(=O)N[C@H](C(=O)N[C@@H](Cc2ccc(O)cc2)C(=O)N[C@@H](Cc2c[nH]c3ccccc23)C(=O)N[C@@H](CCC(=O)O)C(N)=O)C(C)C)NC(=O)[C@H](Cc2ccccc2)NC(=O)[C@H](CCCNC(=N)N)NC(=O)[C@H](CCC(=O)O)NC(=O)[C@H](C(C)C)NC1=O [Compound R3043, [mXylyl(2,7)]M-C-V-E-R-F-C-D-V-Y-W-E-NH2] (H-MCVERFCDVYWE-NH2; linker 2-7 via mXylylene)

SMILES | competition for / affinity for C5 in words
CCC[C@H](NC(=O)[C@H](Cc1ccc(O)cc1)NC(=O)[C@H](CC(N)=O)NC(=O)[C@H](CCC)NC(=O)[C@H](CCC(=O)O)NC(=O)[C@@H](NC(=O)[C@H](Cc1c[nH]c2ncccc12)NC(=O)[C@@H](NC(=O)[C@H](CS)NC(=O)[C@H](Cc1ccc(O)cc1)NC(=O)[C@@H]1CCCN1C(=O)[C@H](Cc1ccc(O)cc1)NC(C)=O)c1ccccc1)C(C)(C)C)C(=O)N[C@@H](CCC(=O)O)C(N)=O [Compound R3023, Ac-Y-P-Y-C-Phg-azaTrp-Tbg-E-Nvl-N-Y-Nvl-E-NH2] (Ac-YPYC[Phg][Trp(7-aza)][Tle]E[Nva]NY[Nva]E-NH2) | no activity at the highest concentration tested; also recorded: not detected at the highest concentration tested; also recorded: no affinity
